The values below come from patent US12390472B2 (SUZHOU SINOVENT PHARMACEUTICALS CO., LTD., priority 2018, dated 2025).

SMILES strings stand for the structures. Read-outs that look alike come from different tables or passages of the source.

Data set [1] addresses EZH2 (Y641N) (Homo sapiens (Human), UniProt Q15910, Y641N). Kind of data set: Test on EZH2 (Y641N) inhibitory activity. The data set is classed as biochemical.
Description: (§1) Compounds at different concentrations were dissolved in 100% DMSO and transferred to test plates, and the final concentration of DMSO was 1%. Enzyme solution and substrate SAM solution were prepared with 1-fold reaction buffer (optimized Tris buffer). 5 uL of enzyme solution was added to the test plate and wells only added with 5 uL of reaction buffer were used as negative control wells. After incubation at room temperature for 15 min, the plate was added with 5 uL of substrate solution per well to initiate the reaction, and then incubated at room temperature for 60 min. 5 uL of receptor solution was added and the plate was incubated away from light at room temperature for 60 min. 10 uL of donor solution was added and the plate was incubated away from light at room temperature for 30 min. The endpoint values were read on the Envision and the IC50 was calculated.
(§2) Data were fitted by GraphPad Prism 5 software and inhibition rate was calculated according to equation (1) Inh %=(Max−Signal)/(Max−Min)×100 (1)
(§3) IC50 was calculated using equation (2) Y=Bottom+(Top−Bottom)/(1+10^((Log IC50−X)×Hill Slope))
(§4) Y: inhibition rate; X: concentration of the compound
For data set [2], the target named is EZH2 (Y641F) (Homo sapiens (Human), UniProt Q15910, Y641F). The data set is described as follows: Test on EZH2 (Y641F) inhibitory activity. In kind it is biochemical.
Description: as §1, §2, §3, §4
Data set [3] concerns the target EZH2 (wt) (Homo sapiens (Human), UniProt Q15910). The data set is described as follows: Test on EZH2 (wt) inhibitory activity ([3H]-SAM Flashplate). The data set is classed as biochemical.
Description: Protocols Compounds at different concentrations were dissolved in 100% DMSO and transferred to test plates, and the final concentration of DMSO was 1%. The enzyme solution and the mixture solution of peptide and [3H]-SAM were prepared with 1-fold reaction buffer. 10 uL of enzyme solution was added to the test plate and wells only added with 10 uL of reaction buffer were used as negative control wells. After incubation at room temperature for 15 min, the plate was added with 10 uL of the mixture solution of peptide and [3H]-SAM per well to initiate the reaction which lasts for 60 min at room temperature. The pre-cooled SAM was added to 1-fold reaction buffer to prepare a stop buffer. The reaction was stopped by adding 10 uL of stop buffer per well. 25 uL of solution was transferred from the reaction plate to Flashplate and incubated at room temperature for at least 1 h. The Flashplate was washed 3 times with dH2O+0.1% Tween-20. The plate was read by Microbeta.
as §2, §3, §4
In data set [4] the test system is WSU-DLCL2 cells. Kind of data set: Experiment on WSU-DLCL2 cell proliferation (Calcein-AM). Particulars: Homo sapiens. The data set is classed as cell-based. The method, then: WSU-DLCL2 cells were plated in a 96-well plate and 100 uL of cells (a density of 1×10^5 cells/mL) and 50 uL of compound stock at 3-fold concentration was added to each well, and the final volume was 150 uL/well. After 6 days of culturing, on day 7, the cells in the well plate were mixed well by pipetting, and 50 uL of the cell suspension was pipetted to be tested for cell viability using Calcein-AM. 50 uL of the cell suspension was added to a 96-well plate coated by poly-D-Lysine, and then 50 uL of HBSS containing 2 uM Calcein-AM was added to make the final concentration of Calcein-AM 1 uM. After incubation for 10 min at room temperature, the cells were rapidly centrifuged to be deposited on the bottom of the plate. The cells were cultured in the incubator for another 40 min and then the plate was read on Acumen.
The remaining cells were diluted and then plated in a 96-well plate, and 100 uL of cells and 50 uL of a compound at 3-fold concentration were added to each well for further culturing until day 14, and the cell viability was detected as described above. The IC50 was calculated.

The subject of data set [5] is Pfeiffer cells. The data set is described as follows: Experiment on Pfeiffer cell proliferation (CellTiter-Glo). In kind it is cell-based, human. Particulars: Homo sapiens. The method, then: 90 uL of cells were added to each well of a 96-well plate at 12000 cells/well, and cell-free culture medium was added to blank control wells. The plate was incubated overnight in an incubator at 37° C., 5% CO2 and 100% relative humidity. The compounds were diluted from highest to lowest concentration gradient with DMSO to make stock solutions at 400-fold and 10-fold concentration. 10 μL of 10× compound working solution was added to the cell culture plate, and the total concentration of the compound was detected from 10 μM, 9 concentration points in total, and 3-fold serial dilution was performed. 10 μL of DMSO-cell culture medium mixture solution was added to the vehicle control wells and blank control wells. The final concentration of DMSO was 0.25%. The plate was put back in the incubator for another 7 days of culturing.
The cell culture plate cultured for 7 days was taken out of the incubator, and the suspended cells in the 96-well plate were mixed well by pipetting multiple times. 74 uL of fresh cell culture medium was added to a new 96-well plate, and 16 uL of cell suspension was pipetted from the 96-well plate with cells mixed well by pipetting into the new 96-well plate to bring the total volume to 90 uL. Cells in the new 96-well plate were treated with the compound. The new 96-well plate was put back in the incubator for another 7 days of culturing, and then cell viability was detected directly.
84 μL of cell suspension was taken from the cell culture plate for cell viability detection.
CellTiter-Glo buffer and substrate were thawed and balanced to room temperature. The CellTiter-Glo buffer was added to a bottle of CellTiter-Glo substrate to dissolve the substrate, thereby preparing CellTiter-Glo working solution. The bottle was subjected to slow vortex shaking to completely dissolve the substrate. The cell culture plate was taken out and balanced to room temperature for 30 min. 50 μL of CellTiter-Glo working solution was added to each well. The cell plate was wrapped with aluminum foil to keep out of light. The plate was shaken on an orbital shaker for 2 min to induce cell lysis. The plate was placed at room temperature for 10 min to stabilize the luminescence signals. The luminescence signals were detected on 2104 En Vision plate reader.
Inhibition rates of compounds at different concentrations were calculated in Excel, followed by plotting the inhibition curves and calculating relevant parameters including minimum (%), maximum (%), and absolute IC50 using GraphPad Prism software.
In general terms: Cellular ATP, detected with luciferase, serves as a proxy for viable cell number.

The nature of data set [6]: In vivo pharmacokinetic properties in mice. To be noted: male ICR mice; for F: intragastric 250 mg/kg vs intravenous 5 mg/kg; for CL / AUC(0-inf) / Cmax / Tmax / half-life: single intravenous 5 mg/kg and intragastric 250 mg/kg study; for AUC(0-inf) / Cmax / Tmax / half-life: mouse, plasma; for AUC(0-inf) / Cmax / Tmax: oral; for Cmax: read-out: Cmax; for Tmax: read-out: Tmax. The arrangement: species or system mouse. The method in brief: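 Male ICR mice, n=3 per group, dosed once at 5 mg/kg IV in 10% DMSO/90% (20% Captisol) or 250 mg/kg intragastrically in 0.5% CMC-Na/0.1% Tween 80 (pH 3-4). EDTA-K2 plasma sampled from 5 min to 24 h; compound levels measured by LC-MS/MS.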

The subject of data set [7] is subcutaneous xenograft tumor model of human B lymphocyte Pfeiffer. The data set is described as follows: In vivo efficacy in subcutaneous xenograft tumor model of human B lymphocyte Pfeiffer. Further details: species or system mouse. Particulars: SCID Beige mice, 100 mg/kg p.o. QD 21 days, tumor volume 21 days after administration. The protocol:
Human B lymphocyte strain Pfeiffer was cultured in vitro, in a monolayer way, in a RPMI-1640 medium containing 10% fetal bovine serum, 100 U/mL penicillin and 100 μg/mL streptomycin in an incubator at 37° C./5% CO2. Conventional medium refreshment and subculturing were carried out twice a week, and cells in logarithmic growth phase were collected and used for tumor inoculation after being counted.
Female SCID Beige mice, aged 6-8 weeks and weighed 18-22 g were used in the experiment. The experiment started after 7-day adaptive feed.
Each mouse was inoculated subcutaneously with 10×10^6 Pfeiffer cells in a volume of 0.2 mL in the right side of the neck. The cells were suspended with PBS and matrigel (volume ratio 1:1). After the average tumor volume reached 130 mm^3, the mice were divided into groups with 8 mice per group for administration. The administration volume was 10 uL/g and the dose was 100 mg/kg if there's no special labeling ((p.o. administration, QD, continuous administration for 21 days).
Animal body weights were measured twice weekly and animal mortality and side effects within each group were recorded based on the number of animals in the group.
The experimental indices were to investigate whether tumor growth was inhibited or delayed or the tumor was cured. Tumor diameters were measured twice weekly using a vernier caliper. The tumor volume was calculated according to the following formula: V=0.5 a×b^2, where a and b represent the long diameter and short diameter of the tumor, respectively. The tumor growth inhibitions (TGIs) of the compounds were evaluated by T/C (%). The percentage value of T/C (%) is an index for reflecting the tumor growth inhibition, where T and C represent the average tumor volume of the administration group and the control group, respectively, at a certain day.
The tumor growth inhibition rate was calculated according to the following formula: TGI (%)=(1−(Ti−T0)/(Vi−V0))×100, where Ti is the average tumor volume of a certain administration group on a certain day, T0 is the average tumor volume of the administration group at the start of administration, Vi is the average tumor volume of the vehicle control group on a certain day (same day as Ti) and V0 is the average tumor volume of the vehicle control group at the start of administration.
Relative tumor volumes at each time point for each group were statistically analyzed and differences among groups were assessed based on the data. The statistical method used for testing was one-way ANOVA.

EZH2 (Y641N), sequence (Q15910 whole entry Y641N): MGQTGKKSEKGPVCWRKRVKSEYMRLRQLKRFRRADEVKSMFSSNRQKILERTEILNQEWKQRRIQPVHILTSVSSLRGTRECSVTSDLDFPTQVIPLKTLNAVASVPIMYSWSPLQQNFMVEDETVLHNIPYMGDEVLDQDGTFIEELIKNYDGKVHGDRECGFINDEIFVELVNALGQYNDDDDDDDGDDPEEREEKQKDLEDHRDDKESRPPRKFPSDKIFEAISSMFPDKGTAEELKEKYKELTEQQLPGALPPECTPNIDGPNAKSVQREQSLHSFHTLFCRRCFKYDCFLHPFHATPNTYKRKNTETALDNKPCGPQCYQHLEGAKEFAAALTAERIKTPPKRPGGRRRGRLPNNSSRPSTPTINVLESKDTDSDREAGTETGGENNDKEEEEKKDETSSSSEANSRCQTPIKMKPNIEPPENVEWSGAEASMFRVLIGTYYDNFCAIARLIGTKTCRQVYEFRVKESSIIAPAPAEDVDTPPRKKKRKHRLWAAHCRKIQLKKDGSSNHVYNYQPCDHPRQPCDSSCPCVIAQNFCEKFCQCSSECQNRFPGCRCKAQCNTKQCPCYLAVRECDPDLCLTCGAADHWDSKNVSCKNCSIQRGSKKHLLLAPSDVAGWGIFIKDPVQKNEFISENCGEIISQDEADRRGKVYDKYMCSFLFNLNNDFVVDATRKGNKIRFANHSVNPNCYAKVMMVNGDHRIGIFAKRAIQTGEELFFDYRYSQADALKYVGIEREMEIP
EZH2 (Y641N), sequence (O75530 whole entry partner): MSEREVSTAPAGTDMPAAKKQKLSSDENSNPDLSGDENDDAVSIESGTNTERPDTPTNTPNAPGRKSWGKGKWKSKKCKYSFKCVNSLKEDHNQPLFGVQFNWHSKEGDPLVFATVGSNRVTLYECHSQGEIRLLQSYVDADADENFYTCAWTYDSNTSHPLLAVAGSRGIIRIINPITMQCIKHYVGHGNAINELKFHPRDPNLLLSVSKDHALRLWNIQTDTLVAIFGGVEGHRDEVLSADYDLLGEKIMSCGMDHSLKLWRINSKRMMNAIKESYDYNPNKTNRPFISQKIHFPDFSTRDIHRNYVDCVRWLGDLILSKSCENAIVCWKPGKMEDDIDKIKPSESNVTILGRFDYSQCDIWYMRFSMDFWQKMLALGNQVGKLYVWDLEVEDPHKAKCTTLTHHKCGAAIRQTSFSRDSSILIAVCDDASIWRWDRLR
EZH2 (Y641N), sequence (Q15022 whole entry partner): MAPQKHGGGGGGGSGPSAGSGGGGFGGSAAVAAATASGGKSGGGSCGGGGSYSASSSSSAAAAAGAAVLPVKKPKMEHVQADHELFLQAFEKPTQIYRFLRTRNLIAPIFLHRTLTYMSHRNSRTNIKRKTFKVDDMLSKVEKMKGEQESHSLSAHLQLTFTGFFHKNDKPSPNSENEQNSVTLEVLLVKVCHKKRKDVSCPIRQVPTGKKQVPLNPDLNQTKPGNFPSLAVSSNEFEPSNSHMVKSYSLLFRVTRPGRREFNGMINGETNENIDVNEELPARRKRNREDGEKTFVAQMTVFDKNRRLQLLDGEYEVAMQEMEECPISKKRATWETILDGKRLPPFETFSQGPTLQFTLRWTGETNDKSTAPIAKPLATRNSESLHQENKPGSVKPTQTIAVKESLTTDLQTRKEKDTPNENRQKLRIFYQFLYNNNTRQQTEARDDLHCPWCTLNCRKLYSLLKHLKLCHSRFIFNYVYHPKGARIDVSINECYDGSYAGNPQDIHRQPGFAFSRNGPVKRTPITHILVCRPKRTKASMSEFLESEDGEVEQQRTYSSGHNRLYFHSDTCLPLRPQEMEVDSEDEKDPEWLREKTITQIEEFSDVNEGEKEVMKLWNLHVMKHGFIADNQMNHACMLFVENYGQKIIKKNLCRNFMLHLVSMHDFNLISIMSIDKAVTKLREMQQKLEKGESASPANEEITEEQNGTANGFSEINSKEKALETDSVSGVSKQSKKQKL
EZH2 (Y641F), sequence (Q15910 whole entry Y641F): as the sequence (Q15910 whole entry Y641N) above, with N641F counted along it
EZH2 (Y641F), sequence (O75530 whole entry partner): as the sequence (O75530 whole entry partner) above
EZH2 (Y641F), sequence (Q15022 whole entry partner): as the sequence (Q15022 whole entry partner) above
EZH2 (wt), sequence (Q15910 whole entry): as the sequence (Q15910 whole entry Y641N) above, with N641Y counted along it
EZH2 (wt), sequence (O75530 whole entry partner): as the sequence (O75530 whole entry partner) above
EZH2 (wt), sequence (Q15022 whole entry partner): as the sequence (Q15022 whole entry partner) above

As to `CCN(c1cc(O[C@H]2C[C@H](N3C[C@@H](C)O[C@@H](C)C3)C2)cc(C(=O)NCc2c(OC)cc(C)[nH]c2=O)c1C)C1CCC(F)(F)CC1` [Example 87, 3-((4,4-difluorocyclohexyl)(ethyl)amino)-5-(trans-3-(cis-2,6-dimethylmorpholino)cyclobutoxy)-N-((4-methoxy-6-methyl-2-oxo-1,2-dihydropyridin-3-yl)methyl)-2-methylbenzamide], the IC50 in data set [1] was 2.6 nM; in data set [2], 5.5 nM; in data set [3] it was 1.2 nM; in data set [4] (WSUDLCL2, 168 h, WSU-DLCL2, Day 7, read-out: IC50 WSU-DLCL2 proliferation Day 7), 40 nM; in data set [4] (WSUDLCL2, 336 h, WSU-DLCL2, Day 14, read-out: IC50 WSU-DLCL2 proliferation Day 14), 9 nM; in data set [5] (168 h, Day 7, read-out: IC50 Pfeiffer proliferation Day 7) it was 20 nM. In addition, the IC50 in data set [5] (336 h, Day 14, read-out: IC50 Pfeiffer proliferation Day 14) is 4.3 nM. This compound registered a F in data set [6] of 35.4%. In addition, in data set [6], the CL is 31.0 ± 2.82 mL/min/lg. Also, the AUC(0-inf) in data set [6] came to 47800 ng·h/mL. Moreover, in data set [6], the Cmax came out at 10600 ± 4150 ng/mL. For the same compound, the Tmax in data set [6] is 0.83 ± 0.29 h. Moreover, the half-life in data set [6] is 5.77 ± 1.51 h. Moreover, the TGI in data set [7] was 42.84%.

As for `CCN(c1cc(O[C@H]2C[C@H](N3C[C@@H](C)O[C@@H](C)C3)C2)cc(C(=O)NCc2c(OC)cc(C)[nH]c2=O)c1C)C1CC2CCC(C1)O2` (stereo partly drawn) [Example 88, 3-((8-oxabicyclo[3.2.1]octan-3-yl)(ethyl)amino)-5-(trans-3-(cis-2,6-dimethylmorpholinyl)cyclobutoxy)-N-((4-methoxy-6-methyl-2-oxo-1,2-dihydropyridin-3-yl)methyl)-2-methylbenzamide], in data set [1], the IC50 is 2 nM. The same compound returned an IC50 in data set [2] of 3.3 nM. This compound gave an IC50 in data set [3] of 1.1 nM. Further, in data set [6], the F was 33.4%, the CL was determined as 60.4 ± 0.15 mL/min/lg, the AUC(0-inf) was 23000 ± 4540 ng·h/mL and the Cmax worked out at 10200 ± 1450 ng/mL. In data set [6], the Tmax turned out to be 0.5 h and the half-life was 2.26 ± 0.87 h. The TGI in data set [7] is on record as 32.83%.

Consider `CCN(c1cc(O[C@H]2C[C@H](N3CCCCC3)C2)cc(C(=O)NCc2c(OC)cc(C)[nH]c2=O)c1C)C1CCOCC1` [Example 93, 3-(ethyl(tetrahydro-2H-pyran-4-yl)amino)-N-((4-methoxy-6-methyl-2-oxo-1,2-dihydropyridin-3-yl)methyl)-2-methyl-5-(trans-3-(piperidin-1-yl)cyclobutoxy)benzamide], for which the IC50 in data set [1] was less than 0.51 nM. The same compound came in with an IC50 in data set [2] of less than 0.51 nM. The compound also displayed an IC50 in data set [3] of less than 0.51 nM. Moreover, in data set [6], the F amounted to 23.1%, the CL is 45.17 ± 4.21 mL/min/lg, the AUC(0-inf) turned out to be 21500 ± 2110 ng·h/mL and the Cmax turned out to be 10700 ± 4120 ng/mL. In addition, in data set [6], the Tmax was 0.33 ± 0.14 h and the half-life is 1.3 ± 0.64 h.

As usually defined, the AUC(0-inf) is total exposure, with the tail of the curve extrapolated. For orientation: Cmax means the maximum level reached in the sampled fluid or tissue. In general, Tmax refers to the time from dosing to the highest level. A word on the half-life: it is the time needed for the level to fall by half in the phase considered. What is called TGI is the reduction of tumour growth relative to the control group.
